Consider 20 compounds from ChEMBL document CHEMBL1136208, “Bone-targeted Src kinase inhibitors: novel pyrrolo- and pyrazolopyrimidine analogues” (Bioorg Med Chem Lett, 2003).

Molecules are shown by their SMILES.

The assay deals with Proto-oncogene tyrosine-protein kinase Src (Homo sapiens, UniProt P12931). Kind of assay: In vitro inhibition of Src protein tyrosine kinase using the Scintillation proximity kinase assay. On the set-up: species or system Oryctolagus cuniculus. In general terms: In a scintillation proximity assay essentially only radioactivity close to the scintillant gives light.
Sequence of Proto-oncogene tyrosine-protein kinase Src (P12931 2-536 limits assumed): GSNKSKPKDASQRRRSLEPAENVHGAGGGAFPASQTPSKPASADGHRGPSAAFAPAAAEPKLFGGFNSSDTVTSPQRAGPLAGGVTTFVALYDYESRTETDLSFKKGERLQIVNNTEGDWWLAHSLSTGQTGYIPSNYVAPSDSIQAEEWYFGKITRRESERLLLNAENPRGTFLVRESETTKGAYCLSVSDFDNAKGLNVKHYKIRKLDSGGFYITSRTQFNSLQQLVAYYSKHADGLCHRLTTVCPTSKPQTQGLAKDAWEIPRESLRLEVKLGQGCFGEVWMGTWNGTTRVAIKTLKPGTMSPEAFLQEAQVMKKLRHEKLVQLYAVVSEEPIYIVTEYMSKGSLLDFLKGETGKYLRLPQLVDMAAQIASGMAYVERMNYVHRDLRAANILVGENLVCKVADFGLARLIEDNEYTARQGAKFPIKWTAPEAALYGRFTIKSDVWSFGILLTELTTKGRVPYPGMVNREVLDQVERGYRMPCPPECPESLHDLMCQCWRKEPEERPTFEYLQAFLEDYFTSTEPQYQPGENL

One may read the IC50 as the concentration at which inhibition is half-maximal. In turn, `COc1cccc(-c2nn(-c3cccc(P(=O)(O)CC(=O)O)c3)c3ncnc(N)c23)c1` displayed an IC50 of 1600 nM.

Take `COc1cccc(-c2cn(-c3ccc(C(=O)O)cc3)c3ncnc(N)c23)c1`: the half-inhibitory concentration (IC50) amounted to 1500 nM. With `COc1cccc(-c2cn(-c3ccc(CCN(C)CCO)cc3)c3ncnc(N)c23)c1`, the IC50 amounted to 160 nM. Compound `Nc1ncnc2c1c(-c1cccc(O)c1)cn2-c1ccc(CCO)cc1` yielded an IC50 of 40 nM. To `COc1cccc(-c2cn(-c3ccc(C(=O)Nc4ccc(C(P(=O)(O)O)P(=O)(O)O)cc4)cc3)c3ncnc(N)c23)c1` belongs 40000 nM; to `CN(CCOP(=O)(O)CP(=O)(O)O)CCc1ccc(-n2cc(-c3cccc(O)c3)c3c(N)ncnc32)cc1`, 4 nM; to `Cc1ccc(-c2nn(CCCCOP(=O)(O)CP(=O)(O)O)c3ncnc(N)c23)cc1`, 680 nM. In the case of `COc1cccc(-c2cn(-c3ccc(CCOP(=O)(O)CP(=O)(O)O)cc3)c3ncnc(N)c23)c1` it was 700 nM; in that of `COc1cccc(-c2cn(-c3ccc(CCN(C)CCOP(=O)(O)CP(=O)(O)O)cc3)c3ncnc(N)c23)c1`, 310 nM. To `COc1cccc(-c2cn(-c3ccc(C(=O)Nc4ccc(P(=O)(O)O)c(P(=O)(O)O)c4)cc3)c3ncnc(N)c23)c1` belongs 870 nM. `COc1cccc(-c2cn(-c3cccc(C(=O)O)c3)c3ncnc(N)c23)c1` displayed an IC50 of 4000 nM.

`COc1cccc(-c2cn(-c3cccc(C(=O)Nc4ccc(P(=O)(O)O)c(P(=O)(O)O)c4)c3)c3ncnc(N)c23)c1` yielded an IC50 of 2500 nM. To `Cc1ccc(-c2nn(-c3cccc(C(=O)NCc4ccc(P(=O)(O)O)c(P(=O)(O)O)c4)c3)c3ncnc(N)c23)cc1` belongs 320 nM. To `COc1cccc(-c2cn(-c3ccc(C(=O)NCCCP(=O)(O)CP(=O)(O)O)cc3)c3ncnc(N)c23)c1` belongs 250 nM; to `CN(CCO)CCc1ccc(-n2cc(-c3cccc(O)c3)c3c(N)ncnc32)cc1`, 40 nM; to `Cc1ccc(-c2nn(-c3cccc(C(=O)NCCCP(=O)(O)CP(=O)(O)O)c3)c3ncnc(N)c23)cc1`, 400 nM. In the case of `Nc1ncnc2c1c(-c1cccc(O)c1)nn2-c1cccc(P(=O)(O)CC(=O)O)c1` it was 20 nM; in that of `COc1cccc(-c2cn(-c3cccc(C(=O)NCCCP(=O)(O)CP(=O)(O)O)c3)c3ncnc(N)c23)c1`, 360 nM; in that of `Nc1ncnc2c1c(-c1cccc(O)c1)cn2-c1ccc(CCOP(=O)(O)CP(=O)(O)O)cc1`, 60 nM. Compound `COc1cccc(-c2cn(-c3cccc(C(=O)Nc4ccc(C(P(=O)(O)O)P(=O)(O)O)cc4)c3)c3ncnc(N)c23)c1` gave an IC50 of 19000 nM.
